From PubChem BioAssay (NCI)
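These data come from cells grown in 96-well plates and exposed to compound for 48 hours at five concentrations. Here, GI50 denotes the concentration required for 50% inhibition of growth. TGI denotes the concentration required for complete inhibition of growth.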 Where a SMILES comes first, the peptide text is derived from it. [ ]: non-standard residue; d: D form. Phe(ol) = N[C@H](CO)Cc1ccccc1; dIva = CC[C@@](C)(N)C(=O)O; Aib = CC(C)(N)C(=O)O

system: MDA-MB-468 breast; experiment: NCI tumour cell line growth inhibition, 48 h

**Q.** For `O=C(Oc1ccccc1)N(c1ccccc1)c1ccccc1`, which GI50 is on record?
**A.** 24 µM

**Q.** What about the TGI of the same molecule?
**A.** 87.7 µM

**Q.** What does the source list for `CCN(CC)C1Oc2cc3c(cc2C(c2cc(OC)c(O)c(OC)c2)C1C)OCO3` (configuration not stated)?
**A.** GI50: 11.6 µM; TGI: 70.7 µM

**Q.** For `Cc1sc(C(=O)c2cncnc2N[C@@H]2C[C@H](COS(N)(=O)=O)[C@@H](O)C2)cc1[C@@H]1NCCc2ccc(Cl)cc21`, which GI50 is on record?
**A.** 0.104 µM

**Q.** What about the TGI of the same molecule?
**A.** 14.8 µM

**Q.** For `COc1cc(-c2nn(-c3ccc(NC(=O)Nc4cc(C(F)(F)F)cc(C(F)(F)F)c4)cc3)cc2-c2ccncc2)ccc1Cl`, which GI50 is on record?
**A.** 1.45 µM

**Q.** And the TGI?
**A.** 3.35 µM

**Q.** Which GI50 does the source give for `c1ccc(-c2[nH]ncc2-c2ccnc(-c3ccc(OCCN4CCOCC4)cc3)c2)nc1` here?
**A.** > 25 µM

**Q.** What about the TGI of the same molecule?
**A.** > 25 µM

**Q.** What does the source list for `COc1ccc(Cn2cc(COc3cc(/C=C/C(=O)c4cc(OC)c(OC)c(OC)c4)ccc3OC)nn2)cc1`?
**A.** GI50: 2.05 µM; TGI: 7 µM

**Q.** `O=C(O)CCC(c1ccccc1)(c1ccccc1)c1ccccc1` was tested. Which GI50 did it give?
**A.** 57.9 µM

**Q.** What about the TGI of the same molecule?
**A.** > 100 µM

**Q.** Which results are given for `CN1CCN(CCCNC(=O)c2c3c(n4ccccc24)C(=O)c2ncccc2C3=O)CC1`?
**A.** GI50: 0.637 µM; TGI: 1.86 µM

**Q.** How did the GI50 turn out when `C=CCn1c2ccccc2c2c3c(c4c5ccccc5n(CC=C)c4c21)C(=O)N(O)C3=O` was run?
**A.** 3.88 µM

**Q.** What about the TGI of the same molecule?
**A.** 41.9 µM

**Q.** With `O=C1/C(=C\c2ccc(F)cc2)CN(C(=O)c2ccccc2F)C/C1=C\c1ccc(F)cc1` as the molecule, how does the GI50 read?
**A.** 1.51 µM

**Q.** And the TGI?
**A.** 3.4 µM

**Q.** How did the GI50 turn out when `CC[C@@](C)(NC(=O)C(C)(C)NC(=O)[C@@H](NC(=O)[C@@H]1CCCN1C(=O)C(C)(C)NC(=O)[C@H](CC(C)C)NC(=O)CNC(=O)C(C)(C)NC(=O)[C@@H](NC(=O)C(C)(C)NC(=O)[C@H](CCC(N)=O)NC(=O)[C@H](C)NC(=O)C(C)(C)NC(=O)[C@H](C)NC(=O)C(C)(C)NC(=O)[C@@H]1CCCN1C(=O)C(C)(C)NC(C)=O)C(C)C)C(C)C)C(=O)N[C@@H](CCC(N)=O)C(=O)N[C@@H](CCC(N)=O)C(=O)N[C@H](CO)Cc1ccccc1` (Ac-[Aib]P[Aib]A[Aib]AQ[Aib]V[Aib]GL[Aib]PV[Aib][dIva]QQ[Phe(ol)]) was run?
**A.** 0.867 µM

**Q.** And the TGI?
**A.** 3.67 µM

**Q.** For `C[C@@H](Nc1cc(F)cc(F)c1)c1cc(C(=O)N(C)C)cc2c(=O)cc(N3CCOCC3)oc12`, which GI50 is on record?
**A.** 0.692 µM

**Q.** What about the TGI of the same molecule?
**A.** 13.1 µM

**Q.** Which GI50 does the source give for `COc1ccc2c(C3=C(c4cn(C)c5ccccc45)C(=O)NC3=O)coc2c1` here?
**A.** 0.278 µM

**Q.** What about the TGI of the same molecule?
**A.** 3.48 µM

**Q.** What does the source list for `Cn1c(CCCC(=O)O)nc2cc(N(CCCl)CCCl)ccc21`?
**A.** GI50: 17.1 µM; TGI: > 100 µM

**Q.** For `Brc1ccccc2cc(-c3ccccc3)nc1-2`, which GI50 is on record?
**A.** 4.7 µM

**Q.** What about the TGI of the same molecule?
**A.** > 56.6 µM

**Q.** `Oc1ccc2c(=S)cc(-c3ccc(Br)cc3)oc2c1O` was tested. Which GI50 did it give?
**A.** 2.08 µM

**Q.** What about the TGI of the same molecule?
**A.** 6.5 µM

**Q.** What does the source list for `CCc1nc(C)cn1C(=O)OCc1nc2nc(Cl)nc(N3CCOCC3)c2[nH]1`?
**A.** GI50: 0.925 µM; TGI: 2.46 µM

**Q.** For `CC[C@@H](C)/C=C(C)/C=C/C(=O)c1c(O)c(-c2ccc(OC(=O)[C@@]34CC[C@@](C)(C(=O)O3)C4(C)C)cc2)cn(O)c1=O`, which GI50 is on record?
**A.** 1.32 µM

**Q.** And the TGI?
**A.** 10.8 µM

**Q.** What does the source list for `CN1CCC2(CC1)N=C(SCC(=O)Nc1cnc3ccccc3c1)C(c1ccc(Br)cc1)=N2`?
**A.** GI50: 1.76 µM; TGI: 3.5 µM

**Q.** What does the source list for `COc1cc(C(=O)/C=C/c2cc(-c3ccc4c(c3)OCO4)n[nH]2)cc(OC)c1OC`?
**A.** GI50: 1.4 µM; TGI: 3.5 µM

**Q.** For `CCCCC(=O)N(c1ccc(Nc2c3ccccc3nc3cc([N+](=O)[O-])ccc23)cc1)S(C)(=O)=O`, which GI50 is on record?
**A.** 0.433 µM

**Q.** What about the TGI of the same molecule?
**A.** 5.7 µM

**Q.** Which GI50 does the source give for `O=C(Nc1ccncc1)C(=O)c1cn(S(=O)(=O)c2cccc(Cl)c2)c2ccccc12` here?
**A.** 0.763 µM

**Q.** And the TGI?
**A.** 45.3 µM

**Q.** With `CC12OC(CC(O)C1O)n1c3ccccc3c3c4c(c5c6ccccc6n2c5c31)C(=O)N(CCN1CCOCC1)C4=O` (configuration not stated) as the molecule, how does the GI50 read?
**A.** 1.17 µM

**Q.** What about the TGI of the same molecule?
**A.** 3.19 µM

**Q.** How did the GI50 turn out when `CC1=CC(=O)N(c2cccc3c(N4C(=O)C=C(C)C4=O)cccc23)C1=O` was run?
**A.** 2.09 µM

**Q.** And the TGI?
**A.** 5.51 µM

**Q.** What does the source list for `O=C(Nc1nc(-c2ccc(Cl)cc2)cs1)c1cc(O)c(O)c(O)c1`?
**A.** GI50: 213 µM; TGI: 2290 µM

**Q.** With `C=C1C(=O)O[C@H]2[C@H]1CC/C(COC(=O)c1cccnc1N)=C\CC[C@@]1(C)O[C@@H]21` as the molecule, how does the GI50 read?
**A.** 0.958 µM

**Q.** What about the TGI of the same molecule?
**A.** 4.18 µM

**Q.** Which results are given for `Cn1ncc(C#N)c1-c1ccc2c(c1)CN([C@H](CN)Cc1cccc(F)c1)C2=O`?
**A.** GI50: 0.105 µM; TGI: 2.97 µM

**Q.** For `NC(=O)c1c(NC(=O)c2cccs2)sc2c1CCC(=O)C2`, which GI50 is on record?
**A.** 2.58 µM

**Q.** And the TGI?
**A.** 8.77 µM

**Q.** How did the GI50 turn out when `Cc1nc2sc(C(=O)Nc3cccc(Br)c3C)c(N)c2cc1C(O)c1ccccc1` (configuration not stated) was run?
**A.** 0.0398 µM

**Q.** And the TGI?
**A.** 26 µM

**Q.** With `C=C1c2nc3ccccc3n2C=C(c2cccc(Cl)c2)N1Cc1ccc(OC)cc1` as the molecule, how does the GI50 read?
**A.** 0.784 µM

**Q.** And the TGI?
**A.** 17.2 µM

**Q.** Which GI50 does the source give for `COc1ccc(OC)c(Nc2nc3nonc3nc2Nc2cccc(Br)c2)c1` here?
**A.** 0.343 µM

**Q.** What about the TGI of the same molecule?
**A.** 3.88 µM

**Q.** With `Cc1ccc(C[As+](c2ccccc2)(c2ccccc2)c2ccccc2)cc1` as the molecule, how does the GI50 read?
**A.** 0.185 µM

**Q.** And the TGI?
**A.** 1.08 µM

**Q.** Which results are given for `CN(C)c1ccc(/C=C(\C#N)c2cc3ccccc3[nH]2)cc1`?
**A.** GI50: 0.373 µM; TGI: 4.2 µM

**Q.** With `Cc1ccc(/C=N/NC(=O)c2ccccc2Oc2ccccc2)o1` as the molecule, how does the GI50 read?
**A.** 19.6 µM

**Q.** And the TGI?
**A.** 65.7 µM

**Q.** `COC(=O)c1c[nH]c2cc(OC(C)C)c(OC(C)C)cc2c1=O` was tested. Which GI50 did it give?
**A.** > 100 µM

**Q.** And the TGI?
**A.** > 100 µM

**Q.** How did the GI50 turn out when `CCN1CCN(c2nc(C)cc(NCc3cc(Nc4ccnc5cc(Cl)ccc45)ccc3F)n2)CC1` was run?
**A.** 1.55 µM

**Q.** What about the TGI of the same molecule?
**A.** 3.51 µM

**Q.** Which GI50 does the source give for `COC(=O)[C@]12CC[C@@H](C)[C@H](C)[C@@H]1C1=CC[C@@H]3[C@@]4(C)C(C=O)=C[C@@](C)(CO)[C@@H]4[C@H](O)C[C@@]3(C)[C@]1(C)CC2` here?
**A.** 4.36 µM

**Q.** What about the TGI of the same molecule?
**A.** 18.9 µM

**Q.** `COc1cc2c(cc1OC)C(C(CCCCCC(CCC(C)C)C1NCCc3cc(OC)c(OC)cc31)CCC(C)C)NCC2` (configuration not stated) was tested. Which GI50 did it give?
**A.** 0.588 µM

**Q.** And the TGI?
**A.** 1.25 µM

**Q.** With `COC(=O)[C@H](Cc1cn(C)cn1)NC(=O)[C@H](CC(=O)OCc1ccccc1)NC(=O)Nc1cc(C(F)(F)F)cc(C(F)(F)F)c1` as the molecule, how does the GI50 read?
**A.** 2.1 µM

**Q.** And the TGI?
**A.** 6.55 µM

**Q.** For `O=C(/C=C/c1ccccc1)c1cccc2ccccc12`, which GI50 is on record?
**A.** 2 µM

**Q.** And the TGI?
**A.** 5.64 µM

**Q.** Which GI50 does the source give for `NCCCNc1nc2ccccc2c2c(=O)c3cc(F)ccc3sc12` here?
**A.** 1.2 µM

**Q.** What about the TGI of the same molecule?
**A.** 2.59 µM

**Q.** How did the GI50 turn out when `Cc1ccc(N)cc1[As]=[As]c1cc(N)ccc1C` (configuration not stated) was run?
**A.** 0.243 µM

**Q.** What about the TGI of the same molecule?
**A.** 0.944 µM

**Q.** Which results are given for `C/C=C/c1cc2c(cc1O)CC[C@@H]1[C@@H]2CC[C@]2(C)[C@@H](O)CC[C@@H]12`?
**A.** GI50: 2.99 µM; TGI: 17.1 µM

**Q.** `COc1cccc2c1C(=O)c1c(O)c3c(c(O)c1C2=O)C[C@@](O)(/C(CO)=N/NC(=O)CCCCCN1C(=O)C=CC1=O)C[C@@H]3O[C@H]1C[C@H](N)[C@H](O)[C@H](C)O1` was tested. Which GI50 did it give?
**A.** 0.438 µM

**Q.** And the TGI?
**A.** 2.75 µM

**Q.** Which results are given for `C#C[C@@]1(O)[C@@H](CO)O[C@@H](n2cc(Br)c3c(Cl)ccnc32)[C@@H]1O`?
**A.** GI50: 0.836 µM; TGI: > 31.6 µM

**Q.** For `CCOc1cc(-c2nncn2C)ccc1Nc1ncc2cc(C)nc(NCC(C)(C)C)c2n1`, which GI50 is on record?
**A.** > 20.2 µM

**Q.** What about the TGI of the same molecule?
**A.** > 100 µM
